Reference: patent publication US20240000786A1, “COMPOSITION FOR ENHANCING INTRA-CELLULAR NITRIC OXIDE GENERATION” (INSTITUTE OF LIFE SCIENCES, priority 2020, published 2024)
Peptide text beside a SMILES is read from it.

T1: rNOSIP (Homo sapiens, UniProt Q9Y314)
T1 construct: made in house; host or cells: E. coli BL21 (DE3)
T1 sequence (Q9Y314 with tags, fused parts or gaps): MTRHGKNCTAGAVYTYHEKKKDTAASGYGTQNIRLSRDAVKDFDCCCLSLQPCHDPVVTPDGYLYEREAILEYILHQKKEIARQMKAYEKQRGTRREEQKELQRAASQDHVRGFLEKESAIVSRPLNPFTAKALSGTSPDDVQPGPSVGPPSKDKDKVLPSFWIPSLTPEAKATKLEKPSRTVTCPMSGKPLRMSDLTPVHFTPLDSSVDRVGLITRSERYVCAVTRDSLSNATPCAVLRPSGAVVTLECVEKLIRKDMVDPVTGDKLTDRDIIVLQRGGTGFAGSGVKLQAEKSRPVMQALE

T2: iNOS-NOSIP protein interaction (Homo sapiens, UniProt Q9Y314)
T2 construct: made in house; host or cells: E. coli BL21 (DE3)
T2 sequence (Q9Y314 with tags, fused parts or gaps): T1 sequence (Q9Y314 with tags, fused parts or gaps)

T3: recombinant Nitric oxide synthase interacting protein (NOSIP)
T3 chain: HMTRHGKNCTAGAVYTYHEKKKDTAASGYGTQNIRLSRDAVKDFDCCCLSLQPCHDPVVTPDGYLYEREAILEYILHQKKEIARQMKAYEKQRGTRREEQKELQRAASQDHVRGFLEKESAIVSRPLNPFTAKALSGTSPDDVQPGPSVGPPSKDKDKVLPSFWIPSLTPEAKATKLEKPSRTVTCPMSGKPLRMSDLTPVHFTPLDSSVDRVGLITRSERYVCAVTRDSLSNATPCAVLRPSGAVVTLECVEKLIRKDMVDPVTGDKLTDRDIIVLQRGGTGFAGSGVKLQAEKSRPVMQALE

B1: recombinant human iNOS oxygenase domain (protein)
chain: HMPRHVRIKNWGSGMTFQDTLHHKAKGILTCRSKSCLGSIMTPKSLTRGPRDKPTPPDELLPQAIEFVNQYYGSFKEAKIEEHLARVEAVTKEIETTGTYQLTGDELIFATKQAWRNAPRCIGRIQWSNLQVFDARSCSTAREMFEHICRHVRYSTNNGNIRSAITVFPQRSDGKHDFRVWNAQLIRYAGYQMPDGSIRGDPANVEFTQLCIDLGWKPKYGRFDVVPLVLQANGRDPELFEIPPDLVLEVAMEHPKYEWFRELELKWYALPAVANMLLEVGGLEFPGCPFNGWYMGTEIGVRDFCDVQRYNILEEVGRRMGLETHKLASLWKDQAVVEINIAVLHSFQKQNVTIMDHHSAAESFMKYMQNEYRSRGGCPADWIWLVPPMSGSITPVFHQEMLNYVLSPFYYYQVEAWKTHVWQDEKLE

How the values were obtained:
rNOSIP = biological target: T1, rNOSIP; experiment: Isothermal titration calorimetry (ITC) of rNOSIP with small molecules / 18 mer iNOS peptide (PP2); assay type: binding; conditions: for Fold Change (KD): ITC KD relative to iNOS-Peptide2 = 1; for SM binding affinity with NOSIP, hierarchy: ITC, rank order
Method: The 18 mer iNOS peptide (PP2) and small molecules were used for physical association of molecules in calorimetric analysis. The molecular association leads to thermodynamics changes such as Gibb's free energy change (ΔG), entropy change (ΔS), enthalpy change (ΔH) and number of binding sites (N) in interacting solution were investigated by isothermal calorimetry MICROCAL PEQ (Malvern) at 25° C. […] The experiment consisted of multiple injections and each injection contained 1.5 μl of binding solution (recombinant NOSIP solution) with 120 second spacing time between subsequent injections. Sequential titrations were carried out and the sample solution was continuously stirred at 270 rpm by the rotating paddle attached to the syringe needle. Multiple injections of NOSIP made into the sample cell containing interacting solution of peptide and small molecules. The titration curves were analyzed using the analysis software provided with the calorimeter.
The 18 mer iNOS peptide (PP2) and five small molecules were used to analyze physical association in calorimetric analysis. The molecular association leads to thermodynamics changes such as Gibb's free energy change (ΔG), entropy change (ΔS), enthalpy change (ΔH) and number of binding sites (N) in interacting solution were investigated by isothermal calorimetry MICROCAL PEQ (Malvern) at 25° C. […] The experiment consisted of multiple injections and each injection contained 1.5 μl of binding solution with 120 second spacing time between subsequent injections. Sequential titrations were carried out and the sample solution was continuously stirred at 270 rpm by the rotating paddle attached to the syringe needle. Multiple injections of NOSIP made into the sample cell containing interacting solution of peptide and small molecules. The titration curves were analyzed using the analysis software provided with the calorimeter.

[1] = biological target: T2, iNOS-NOSIP protein interaction; experiment: SPR: inhibition of rNOSIP association with immobilized recombinant iNOS by iNOS peptides / small molecules; assay type: binding; conditions: for inhibition hierarchy of iNOS-NOSIP protein interaction: SPR, rank order; for kon / Kd: analyte rNOSIP alone or + peptide/small molecule, ligand r iNOS, 20° C.; for kon: 1:1 Langmuir, read-out: Ka; for Kd: Kd/Ka; for inhibition of binding of NOSIP with iNOS ligand by small molecules: rNOSIP 250 nM, small molecules 1 uM, SPR (FIG. 4); for inhibition of iNOS-NOSIP protein interaction by iNOS derived peptides: iNOS peptides 250 nM, proteins 125 nM, SPR (FIG. 2(a))
Method: Four different iNOS peptides were synthesized commercially by China peptides and iNOS peptides were used for molecular interaction studies with immobilized recombinant iNOS purified protein. The iNOS peptides mediated inhibition of rNOSIP and riNOS protein association in Bio-Rad XPR 36 surface plasmon resonance biosensor instrument. […] 250 nM of iNOS peptides was used for inhibition assay with immobilized ligand(recombinant iNOS) in SPR analysis. Similar condition and concentration of small molecules were used for inhibition of recombinant protein association with immobilized ligand. […] The rNOSIP protein was incubated with iNOS derived peptide/small molecules for 30 minutes in ice for inhibition assay before the SPR application in our study. The molecular interaction was carried out at 20° C. and kinetic parameters were determined, after fitting the association and dissociation curves to a 1:1 (Langmuir)-binding model. An activated channel without immobilized ligand was used to evaluate nonspecific binding. The response curves were also recorded on control surfaces. Results were calculated after subtraction of the control values using the ProteOn Manager software.
The collected sensorgram data were processed by reference subtraction using double-referencing with the in-line blank buffer. The integrated ProteOn Manager software was used to fit the data with the Langmuir model describing a 1:1 binding stoichiometry. Ka is the association rate constant, Kd is the dissociation rate constant, and KD is the equilibrium dissociation constant, defined by the Kd/Ka ratio for the analytes-ligand binding.
The five small molecules bind with NOSIP and inhibit the association of recombinant NOSIP and recombinant iNOS. The rNOSIP protein was incubated with iNOS derived peptide or small molecules for 30 minutes in ice prior to SPR application. The molecular interaction was carried out at 20° C. and kinetic parameters were determined, after fitting the association and dissociation curves to a 1:1 (Langmuir)-binding model. An activated channel without immobilized ligand (recombinant iNOS) was used to evaluate nonspecific binding. The response curves were also recorded on control surfaces. Results were calculated after subtraction of the control values using the ProteOn Manager software.
The collected sensorgram data were processed by reference subtraction using double-referencing with the in-line blank buffer. The integrated ProteOn
Manager software was used to fit the data with the Langmuir model describing a 1:1 binding stoichiometry. Ka is the association rate constant, Kd is the dissociation rate constant, and KD is the equilibrium dissociation constant, defined by the Kd/Ka ratio for the analytes—ligand binding.

[2] = biological target: T3, recombinant Nitric oxide synthase …
[3] = ITC 25° C., small molecule/peptide in cell, NOSIP in syringe
[4] = 10 μM iNOS peptide in the chamber, 150 μM rNOSIP in syringe, 25° C. (FIG. 3)

Molecule | ΔG (rNOSIP; ITC 25° C.) [kcal/mol] | ΔH (rNOSIP; ITC 25° C.) [kcal/mol] | −TΔS (rNOSIP; ITC 25° C.) [kcal/mol] | Kd (rNOSIP; [3]) [nM] | N (Sites) (rNOSIP; [3]) | Fold Change (KD) (rNOSIP) | SM binding affinity with NOSIP, hierarchy (rNOSIP) | inhibition hierarchy of iNOS-NOSIP protein interaction [1] | kon [1] [M⁻¹ s⁻¹] | Kd [1] [nM] | inhibition of binding of NOSIP with iNOS ligand by small molecules [1] | inhibition of iNOS-NOSIP protein interaction by iNOS derived peptides [1] | further results
NS(=O)(=O)c1ccc(CCNC(=O)CCCn2c(SCC(=O)c3ccc(Cl)c(Cl)c3)nc3ccsc3c2=O)cc1 [MCULE-3765839647, 4-(2-{[2-(3,4-dichlorophenyl)-2-oxoethyl]sulfanyl}-4-oxo-3H,4H-thieno[3,2-d]pyrimidin-3-yl)-N-[2-(4-sulfamoylphenyl)ethyl]butanamide] | -7.5 | -27.3 ± 1.11 | 19.8 | 524 ± 64.9 | 0.989 | 0.956 | CC4>CC11>CC6>CC5>CC13>Peptide 2 (iNOS) | CC4>CC11>CC6>CC5>CC13>iNOS Peptide 2 | 0.807 | 704000 | inhibit the binding of NOSIP with iNOS ligand | – | –
PP4: iNOS derived peptide, SEQ ID No: 28 (NLQVFDARSCSTAREMFEHICRHVRYSTNNGNI; Human) | – | – | – | – | – | – | – | – | – | – | – | inhibited | inhibition of iNOS-NOSIP protein interaction by iNOS derived peptides ([1]; listed as peptide-4): less efficient in inhibiting interaction between iNOS and NOSIP
CCCCN=c1scc(-c2ccc(O)c(C(N)=O)c2)n1N=Cc1cc(Br)c(O)c(OC)c1 [MCULE-8395438746, 5-(3-{[(3-bromo-4-hydroxy-5-methoxyphenyl)methylidene]amino}-2-(butylimino)-2,3-dihydro-1,3-thiazol-4-yl)-2-hydroxybenzamide] | -8.55 | -28.5 ± 0.694 | 20.0 | 542 ± 54.9 | 0.864 | 0.989 | CC4>CC11>CC6>CC5>CC13>Peptide 2 (iNOS) | CC4>CC11>CC6>CC5>CC13>iNOS Peptide 2 | 0.835 | 543000 | inhibit the binding of NOSIP with iNOS ligand | – | –
PP3: iNOS derived peptide, SEQ ID No: 27 (GWKPKYGRFDVVPLVLQANGRDPELFEIPPDLVL; Human) | – | – | – | – | – | – | – | – | – | – | – | inhibited | inhibition of iNOS-NOSIP protein interaction by iNOS derived peptides ([1]; listed as Peptide3): less efficient in inhibiting interaction between iNOS and NOSIP
PP1: iNOS derived peptide, SEQ ID No: 25 (TGDELIFATKQAWR; Human) | – | – | – | – | – | – | – | – | – | – | – | inhibited | inhibition of iNOS-NOSIP protein interaction by iNOS derived peptides ([1]; listed as Peptide-1): less efficient in inhibiting interaction between iNOS and NOSIP
Cc1ccc(-c2nnn(CC(=O)N(Cc3ccco3)C(C(=O)NC(C)(C)C)c3ccc(O)cc3)n2)cc1 (stereo not shown) [MCULE-8469877005, N-tert-butyl-2-{N-[(furan-2-yl)methyl]-2-[5-(4-methylphenyl)-2H-1,2,3,4-tetrazol-2-yl]acetamido}-2-(4-hydroxyphenyl) acetamide] | -8.56 | -29.3 ± 1.12 | 20.8 | 535 ± 80.8 | 0.794 | 0.976 | CC4>CC11>CC6>CC5>CC13>Peptide 2 (iNOS) | CC4>CC11>CC6>CC5>CC13>iNOS Peptide 2 | 0.822 | 588000 | inhibit the binding of NOSIP with iNOS ligand | – | –
CC[C@H](C)[C@H](NC(=O)[C@H](CCCCN)NC(=O)[C@H](C)NC(=O)[C@H](CCC(=O)O)NC(=O)[C@H](CCCCN)NC(=O)[C@H](Cc1ccccc1)NC(=O)[C@H](CO)NC(=O)CNC(=O)[C@H](Cc1ccc(O)cc1)NC(=O)[C@H](Cc1ccc(O)cc1)NC(=O)[C@H](CCC(N)=O)NC(=O)[C@@H](N)CC(N)=O)C(=O)N[C@@H](CCC(=O)O)C(=O)N[C@@H](CCC(=O)O)C(=O)N[C@@H](Cc1c[nH]cn1)C(=O)N[C@@H](CC(C)C)C(=O)N[C@@H](C)C(=O)N[C@@H](CCCNC(=N)N)C(=O)O [iNOS-Peptide2] (H-NQYYGSFKEAKIEEHLAR-OH; N-terminus and C-terminus assumed) | -8.54 | -8.44 ± 0.271 | -0.10 | – | 1.09 | 1 | CC4>CC11>CC6>CC5>CC13>Peptide 2 (iNOS) | CC4>CC11>CC6>CC5>CC13>iNOS Peptide 2 | 536 | – | – | – | Kd (rNOSIP; [4]): 493 ± 63.2 nM; ΔG (rNOSIP; [4]): -8.61 kcal/mol; ΔH (rNOSIP; [4]): -9.07 ± 0.251 kcal/mol; −TΔS (rNOSIP; [4]): 0.459 kcal/mol; Fold Change (KD) ([1]; SPR KD relative to rNOSIP + iNOS peptide2 = 1): 1; inhibition of iNOS-NOSIP protein interaction by iNOS derived peptides ([1]; listed as PP2): inhibited; inhibition of iNOS-NOSIP protein interaction by iNOS derived peptides ([1]; listed as PP-2): block significantly interaction between recombinant iNOS and NOSIP
B1 | – | – | – | – | – | – | – | – | – | – | – | – | iNOS enzyme activity (nitrite quantified by Griess reaction, L-Arginine substrate) [2]: recombinant NOSIP inhibits enzyme activity of iNOS
